In patent publication US12569453B2, “Use of tapinarof for the treatment of atopic dermatitis” (Dermavant Sciences GmbH, priority 2018, dated 2026):
Marks after values point to notes of the source that are not given here.

System: adult subjects with psoriasis
Experiment: Phase II/2b clinical study in plaque psoriasis: efficacy and patient-reported outcomes
Assay type: in vivo, human
Conditions: for PGA response rate (primary endpoint): interim analysis; for subjects with ≥4 improvement in pruritus NRS score from baseline: baseline NRS score ≥4; for PGA response rate (PGA 0 or 1 and ≥2-grade improvement): mITT OC; for PASI50 response rate / PASI75 response rate / PASI90 response rate: Week 16; for PGA treatment success: Week 16 (4 weeks after end of treatment)
Source text: This was a multicenter (United States, Canada, and Japan), randomized, double-blind (Sponsor-unblind), vehicle-controlled, 6-arm, parallel-group, dose-finding study in adult subjects with psoriasis. Certain study personnel at each site were unblinded to dose-frequency.
The study consisted of 3 periods: up to 4 weeks Screening, 12 weeks double-blind treatment, and 4 weeks post-treatment follow-up. Study visits occurred at Screening; Baseline; weeks 1, 2, 4, 8, and 12 during the treatment period; and 2 and 4 weeks after the last application of study treatment (i.e., at weeks 14 and 16). Additional visits could occur, as needed, for early withdrawals or to follow-up on any skin reactions or ongoing AEs. A subject's total duration of study participation was approximately 16 to 20 weeks.
Two concentrations of Tapinarof cream (0.5% and 1%) and a vehicle control were evaluated following application to all psoriasis lesions (except on the scalp) once (QD) or twice daily (BID) for 12 weeks. There were no planned dose adjustments during the study.
Efficacy was assessed by using a 5-point static Physician Global Assessment (PGA) (0-4 scale), the Psoriasis Area and Severity Index (PASI), % BSA involvement, target lesion assessments (erythema, scaling, and plaque thickness), and subject-reported itch/pruritus severity using a numeric rating scale (NRS) (from the Psoriasis Symptom Diary [PSD]). Additional subject-reported outcomes included the daily PSD (which also contained severity and bother items for 3 additional symptoms). Investigator global impression of change item (assessing change in severity of psoriasis symptoms) and 2 subject global impressions of change items (assessing change in severity of psoriasis symptoms and change in severity of itch/pruritus) were also assessed.
Physician Global Assessment: The PGA is a clinical tool for assessing the current state/severity of a subject's psoriasis. It is a static 5-point morphological assessment of overall disease severity, as determined by the investigator, using the clinical characteristics of erythema, plaque thickness, and scaling as guidelines. At each specified time point, the PGA is made without reference to previous scores. Variations of the PGA are frequently used in clinical studies because it is a simple assessment that is more similar to the assessments actually used in clinical practice. Scoring system ranges from 0 (=Clear) to 4 (=Severe).
Psoriasis Area and Severity Index: The PASI scoring system is a widely-used standard clinical tool for assessing the severity of psoriasis that takes into account the overall severity of erythema (redness), thickness (induration), and scale, as well as the extent of BSA affected with psoriasis. The 3 clinical signs are each graded on a 5 point scale (0 to 4) and the % BSA affected is scored on a 7-point scale (0 to 6) for each of the 4 specified body regions (head, upper extremities, trunk, and lower extremities). The individual scores are multiplied by a weighted factor for each body region; the sum of these scores gives the overall PASI score. Higher scores indicate more severe disease. PASI is a static assessment made without reference to previous scores.
Body Surface Area: The extent of BSA affected by psoriasis is a general indicator of disease severity and was measured throughout the study. The extent of BSA to which study treatment was applied was also recorded. For the purpose of approximate clinical estimation, the total palmar surface of the palm plus 5 digits was assumed to be approximately equivalent to 1% BSA.
Target Lesion Grading: A single target lesion was selected at Baseline to assess efficacy in treating a discrete area rather than an overall average of all areas. For that lesion, the severity of erythema, scaling, and plaque thickness was assessed by the investigator on a 5-point scale ranging from “0=none” to “4=severe”. […]

## CC(C)c1c(O)cc(/C=C/c2ccccc2)cc1O [Tapinarof, 3,5-Dihydroxy-4-isopropyl-trans-stilbene]
1% BID, Early WD
  Target lesion Erythema, percent change from Baseline (Mean): −46.67%
  Target lesion Plaque thickness, percent change from Baseline (Mean): −46.67%
  Target lesion Scaling, percent change from Baseline (Mean): −52.50%
1% BID, Fitzpatrick skin type I/II
  PGA response at Week 12: 60%
1% BID, Fitzpatrick skin type III/IV
  PGA response at Week 12: 54%
1% BID, Fitzpatrick skin type V/VI
  PGA response at Week 12: 100%
1% BID, Follow-up Week 14
  Target lesion Erythema, percent change from Baseline (Mean): −65.42%
  Target lesion Plaque thickness, percent change from Baseline (Mean): −67.50%
  Target lesion Scaling, percent change from Baseline (Mean): −67.50%
1% BID, Follow-up/Week 16
  Target lesion Erythema, percent change from Baseline (Mean): −78.33%
  Target lesion Plaque thickness, percent change from Baseline (Mean): −76.67%
  Target lesion Scaling, percent change from Baseline (Mean): −77.50%
1% BID, Week 1
  Target lesion Erythema, percent change from Baseline (Mean): −12.50%
  Target lesion Plaque thickness, percent change from Baseline (Mean): −18.75%
  Target lesion Scaling, percent change from Baseline (Mean): −25.00%
1% BID, Week 2
  Target lesion Erythema, percent change from Baseline (Mean): −25.52%
  Target lesion Plaque thickness, percent change from Baseline (Mean): −33.33%
  Target lesion Scaling, percent change from Baseline (Mean): −32.55%
1% BID, Week 4
  Target lesion Erythema, percent change from Baseline (Mean): −44.94%
  Target lesion Plaque thickness, percent change from Baseline (Mean): −48.51%
  Target lesion Scaling, percent change from Baseline (Mean): −55.65%
1% BID, Week 8
  Target lesion Erythema, percent change from Baseline (Mean): −62.50%
  Target lesion Plaque thickness, percent change from Baseline (Mean): −62.82%
  Target lesion Scaling, percent change from Baseline (Mean): −70.51%
  PGA response rate (primary endpoint): 42%
1% BID, Week 12
  Mean change in nine items of the PSD from baseline: −4.5^‡
  Mean change in total target lesion grading scores from baseline: −6.9*
  Target lesion Erythema, percent change from Baseline (Mean): −77.65%
  Target lesion Plaque thickness, percent change from Baseline (Mean): −81.82%
  Target lesion Scaling, percent change from Baseline (Mean): −78.79%
  absolute mean change in percent BSA affected from baseline: 4.9
  decrease in total target lesion grading scores (mean change): 6.9
  subjects with ≥4 improvement in pruritus NRS score from baseline: 55%
  PGA response rate (PGA 0 or 1 and ≥2-grade improvement): 65%
1% BID
  PASI50 response rate: 83%
  PASI75 response rate: 63%
  PASI90 response rate: 38%
  PGA treatment success: 58%
1% BID, baseline to Week 12
  subjects with severity of pruritus symptoms rated very/moderately improved: 70%
1% BID, psoriasis duration 5 years to <10 years
  PGA response at Week 12: 67%
1% BID, psoriasis duration 6 months to <5 years
  PGA response at Week 12: 50%
1% BID, psoriasis duration ≥10 years
  PGA response at Week 12: 73%
1% BID, ≥10% BSA affected at baseline
  PGA response at Week 12: 64%
1% QD
  PASI75 responders who maintained response from Week 12 to Week 16: 93%
  PGA responders who maintained response from Week 12 to Week 16: 86%
  PASI50 response rate: 77%
  PASI75 response rate: 58%
  PASI90 response rate: 42%
  PGA treatment success: 54%
1% QD-vehicle QD, Week 12
  difference in PGA response rate, active minus vehicle: 51.0%
1% QD, 1 to <10% BSA affected at baseline
  PGA response at Week 12: 60%
1% QD, Early WD
  Target lesion Erythema, percent change from Baseline (Mean): −47.62%
  Target lesion Plaque thickness, percent change from Baseline (Mean): −60.71%
  Target lesion Scaling, percent change from Baseline (Mean): −57.14%
1% QD, Fitzpatrick skin type I/II
  PGA response at Week 12: 67%
1% QD, Fitzpatrick skin type III/IV
  PGA response at Week 12: 47%
1% QD, Fitzpatrick skin type V/VI
  PGA response at Week 12: 75%
1% QD, Follow-up Week 14
  Target lesion Erythema, percent change from Baseline (Mean): −70.65%
  Target lesion Plaque thickness, percent change from Baseline (Mean): −70.29%
  Target lesion Scaling, percent change from Baseline (Mean): −67.39%
1% QD, Follow-up/Week 16
  Target lesion Erythema, percent change from Baseline (Mean): −74.24%
  Target lesion Plaque thickness, percent change from Baseline (Mean): −65.91%
  Target lesion Scaling, percent change from Baseline (Mean): −71.59%
1% QD, Week 1
  Target lesion Erythema, percent change from Baseline (Mean): −17.14%
  Target lesion Plaque thickness, percent change from Baseline (Mean): −13.10%
  Target lesion Scaling, percent change from Baseline (Mean): −24.29%
1% QD, Week 2
  Target lesion Erythema, percent change from Baseline (Mean): −35.68%
  Target lesion Plaque thickness, percent change from Baseline (Mean): −30.47%
  Target lesion Scaling, percent change from Baseline (Mean): −32.81%
1% QD, Week 4
  Target lesion Erythema, percent change from Baseline (Mean): −51.88%
  Target lesion Plaque thickness, percent change from Baseline (Mean): −47.04%
  Target lesion Scaling, percent change from Baseline (Mean): −53.49%
1% QD, Week 8
  Target lesion Erythema, percent change from Baseline (Mean): −65.06%
  Target lesion Plaque thickness, percent change from Baseline (Mean): −60.90%
  Target lesion Scaling, percent change from Baseline (Mean): −71.79%
  PGA response rate (primary endpoint): 32%
1% QD, Week 12
  Mean change in nine items of the PSD from baseline: −4.0^†
  Mean change in total target lesion grading scores from baseline: −7.0*
  Target lesion Erythema, percent change from Baseline (Mean): −81.88%
  Target lesion Plaque thickness, percent change from Baseline (Mean): −70.29%
  Target lesion Scaling, percent change from Baseline (Mean): −83.33%
  absolute mean change in percent BSA affected from baseline: 4.3
  decrease in total target lesion grading scores (mean change): 7.0
  subjects with ≥4 improvement in pruritus NRS score from baseline: 73%
  PGA response rate (PGA 0 or 1 and ≥2-grade improvement): 56%
1% QD, psoriasis duration 5 years to <10 years
  PGA response at Week 12: 50%
1% QD, psoriasis duration 6 months to <5 years
  PGA response at Week 12: 80%
1% QD, psoriasis duration ≥10 years
  PGA response at Week 12: 50%
1% QD, ≥10% BSA affected at baseline
  PGA response at Week 12: 40%
1% and 0.5% concentration groups, Week 12
  subjects rating itch symptoms very improved or moderately improved: 70-77%
1% concentration groups, Week 12
  subjects rated by investigators as very improved or moderately improved: > 80%
1% groups, Week 12
  subjects rating pruritus symptoms very improved or moderately improved: 70-76%
